Patent US11214803B2, “Modulators of YAP1 expression” (Ionis Pharmaceuticals, Inc., priority 2019, dated 2022)
Strand notation (5' to 3'): a small letter for the sugar, then the base; units joined by * are phosphorothioate-linked, units joined directly phosphodiester-linked; [ ] holds rarer units or linkages, { } end groups; capitals alone tell only the bases. k = constrained ethyl (cEt); [5mC] = 5-methylcytosine; d = 2'-deoxy (DNA); m = 2'-O-methyl

These substances were tested on Yap1 mRNA (assay: Antisense inhibition of human Yap1 in A-431 cells by cEt gapmers, single dose (Example 2, RTS4814)). Details: Table 5; A-431 cells, 5,000 cells per well, free uptake, 2,000 nM modified oligonucleotide, approx. 48 hours; RTS4814; normalized to RIBOGREEN; Yap1 mRNA relative to untreated control cells.
Type: cell-based
How it was run: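 A-431 cells (5,000/well) took up 2,000 nM 3-10-3 cEt gapmer by free uptake for ~48 h. Yap1 mRNA was quantified by qRT-PCR with primer probe set RTS4814, normalized to RIBOGREEN total RNA, and reported as % of untreated control.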

With “716524 (antisense kA*k[5mC]*kT*dG*dA*dG*dG*dT*dA*dT*dA*dA*d[5mC]*kT*kG*kG) [Compound 716524]” the “YAP1 (% UTC)” value was 35 % UTC.

Same assay, conditions: Table 6; A-431 cells, 5,000 cells per well, free uptake, 2,000 nM modified oligonucleotide, approx. 48 hours; RTS4814; normalized to RIBOGREEN; Yap1 mRNA relative to untreated control cells

With “716444 (kA*kA*kA*dT*dT*dG*dT*d[5mC]*dT*d[5mC]*dA*dT*dG*k[5mC]*k[5mC]*kT) [Compound 716444]” the “YAP1 (% UTC)” value was 40 % UTC.

Same assay, conditions: Table 18; A-431 cells, 5,000 cells per well, free uptake, 2,000 nM modified oligonucleotide, approx. 48 hours; RTS4814; normalized to RIBOGREEN; Yap1 mRNA as percent of untreated control

“1074756 (kG*k[5mC]*kA*d[5mC]*dT*dT*dT*dT*dA*d[5mC]*dA*dT*dT*kA*kG*kG) [Compound 1074756]” was tested, and the “YAP1 (% UTC)” value was 3 % UTC.

Same assay, conditions: Table 19; A-431 cells, 5,000 cells per well, free uptake, 2,000 nM modified oligonucleotide, approx. 48 hours; RTS4814; normalized to RIBOGREEN; Yap1 mRNA as percent of untreated control

“1076453 (kG*kT*kA*dA*dT*dA*dT*dT*dG*d[5mC]*dA*dA*dT*k[5mC]*kT*kG) [Compound 1076453]” was tested, and the “YAP1 (% UTC)” value was 1 % UTC.

Same assay, conditions: Table 20; Yap1 mRNA, percent of untreated control; 3-10-3 cEt gapmers targeting SEQ ID NO.: 1 and 2

“1074726 (antisense kG*kG*kT*dA*dT*dA*dA*d[5mC]*dT*dG*dG*dG*d[5mC]*kA*kA*kA) [Compound 1074726]” was tested, and the “YAP1 (% UTC)” value was 2 % UTC.

Same assay, conditions: Table 21; Yap1 mRNA, percent of untreated control; 3-10-3 cEt gapmers targeting SEQ ID NO.: 1 and 2

“1074727 (antisense kG*kA*kG*dG*dT*dA*dT*dA*dA*d[5mC]*dT*dG*dG*kG*k[5mC]*kA) [Compound 1074727]” was tested, and the “YAP1 (% UTC)” value was 9 % UTC.

Same assay, conditions: Table 22; Yap1 mRNA as percent of untreated control; 3-10-3 cEt gapmers; single dose

Compared with “1074728 (antisense kT*kG*kA*dG*dG*dT*dA*dT*dA*dA*d[5mC]*dT*dG*kG*kG*k[5mC]) [Compound 1074728]”, “1076456 (antisense k[5mC]*kT*kT*dT*dA*dA*dA*dG*dT*dG*dT*dA*dT*kG*kT*k[5mC]) [Compound 1076456]” is lower in “YAP1 (% UTC)” value: 3 % UTC for the first, 2 % UTC for the second.

Each substance was assayed on Yap1 mRNA (assay: Antisense inhibition of human Yap1 in SNU-449 cells by modified oligonucleotides, single dose (Example 5, RTS36584)). Details: Table 48; Yap1 mRNA level relative to untreated control; modified oligonucleotides targeting SEQ ID NO.: 1 and 2.
Type: cell-based
How it was run: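 SNU-449 cells were given 2,000 nM oligonucleotide by free uptake for about 48 h. Yap1 mRNA was then measured by RT-qPCR with primer probe set RTS36584, normalized to total RNA by RIBOGREEN and expressed as percent of untreated control.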

Going from “716524 (antisense kA*k[5mC]*kT*dG*dA*dG*dG*dT*dA*dT*dA*dA*d[5mC]*kT*kG*kG) [Compound 716524]” to “1074726 (antisense kG*kG*kT*dA*dT*dA*dA*d[5mC]*dT*dG*dG*dG*d[5mC]*kA*kA*kA) [Compound 1074726]”, the “YAP1 (% UT)” value falls from 59 % UT to 23 % UT.

Compared with “1074727 (antisense kG*kA*kG*dG*dT*dA*dT*dA*dA*d[5mC]*dT*dG*dG*kG*k[5mC]*kA) [Compound 1074727]”, “1074728 (antisense kT*kG*kA*dG*dG*dT*dA*dT*dA*dA*d[5mC]*dT*dG*kG*kG*k[5mC]) [Compound 1074728]” is lower in “YAP1 (% UT)” value: 51 % UT for the first, 14 % UT for the second.

“1076456 (antisense k[5mC]*kT*kT*dT*dA*dA*dA*dG*dT*dG*dT*dA*dT*kG*kT*k[5mC]) [Compound 1076456]” was tested, and the “YAP1 (% UT)” value was 44 % UT.

Same assay, conditions: Table 52; Yap1 mRNA, modified oligonucleotides targeting SEQ ID NO: 1 and 2

First: 1200841 (kT*k[5mC]*kT*dT*dA*mU*dA*dT*dG*dG*dT*dT*dT*kT*kG*kT; antisense) [Compound 1200841]
Second: 1200842 (k[5mC]*kT*k[5mC]*dT*dT*mA*dT*dA*dT*dG*dG*dT*dT*kT*kT*kG; antisense) [Compound 1200842]
The “YAP1 (% UT)” value of the first is lower: 76 % UT for the first, 168 % UT for the second.

First: 1200843 (kA*k[5mC]*kT*d[5mC]*dT*mU*dA*dT*dA*dT*dG*dG*dT*kT*kT*kT; antisense) [Compound 1200843]
Second: 1200844 (kA*kA*k[5mC]*dT*d[5mC]*mU*dT*dA*dT*dA*dT*dG*dG*kT*kT*kT; antisense) [Compound 1200844]
The “YAP1 (% UT)” value of the first is lower: 46 % UT for the first, 132 % UT for the second.

Compared with “1200845 (k[5mC]*kA*kA*d[5mC]*dT*mC*dT*dT*dA*dT*dA*dT*dG*kG*kT*kT; antisense) [Compound 1200845]”, “1200846 (kG*kA*k[5mC]*dA*dA*mC*dT*d[5mC]*dT*dT*dA*dT*dA*kT*kG*kG; antisense) [Compound 1200846]” is lower in “YAP1 (% UT)” value: 100 % UT for the first, 38 % UT for the second.

First: 1200847 (kA*kT*kT*dG*d[5mC]*mA*dA*dT*d[5mC]*dT*dG*dT*d[5mC]*kT*kG*kA; antisense) [Compound 1200847]
Second: 1200848 (kA*kT*kA*dT*dT*mG*d[5mC]*dA*dA*dT*d[5mC]*dT*dG*kT*k[5mC]*kT; antisense) [Compound 1200848]
The “YAP1 (% UT)” value of the first is lower: 54 % UT for the first, 58 % UT for the second.

Compared with “1200849 (kA*kA*kT*dA*dT*mU*dG*d[5mC]*dA*dA*dT*d[5mC]*dT*kG*kT*k[5mC]; antisense) [Compound 1200849]”, “1200850 (kT*kA*kA*dT*dA*mU*dT*dG*d[5mC]*dA*dA*dT*d[5mC]*kT*kG*kT; antisense) [Compound 1200850]” is higher in “YAP1 (% UT)” value: 53 % UT for the first, 83 % UT for the second.

First: 1200851 (kG*kT*kA*dA*dT*mA*dT*dT*dG*d[5mC]*dA*dA*dT*k[5mC]*kT*kG; antisense) [Compound 1200851]
Second: 1200852 (kT*kG*kT*dA*dA*mU*dA*dT*dT*dG*d[5mC]*dA*dA*kT*k[5mC]*kT; antisense) [Compound 1200852]
The “YAP1 (% UT)” value of the first is lower: 25 % UT for the first, 32 % UT for the second.

First: 1200853 (kA*kT*kG*dT*dA*mA*dT*dA*dT*dT*dG*d[5mC]*dA*kA*kT*k[5mC]; antisense) [Compound 1200853]
Second: 1200854 (kT*kA*kT*dG*dT*mA*dA*dT*dA*dT*dT*dG*d[5mC]*kA*kA*kT; antisense) [Compound 1200854]
The “YAP1 (% UT)” value of the first is lower: 69 % UT for the first, 91 % UT for the second.

First: 1200855 (kT*kT*kT*dA*dT*mG*dT*dA*dA*dT*dA*dT*dT*kG*k[5mC]*kA; antisense) [Compound 1200855]
Second: 1200856 (kT*kG*kT*dA*dT*mG*dT*d[5mC]*dA*dG*dA*dA*dG*kA*kG*kT; antisense) [Compound 1200856]
The “YAP1 (% UT)” value of the first is higher: 56 % UT for the first, 29 % UT for the second.

Compared with “1200857 (kA*kG*kT*dG*dT*mA*dT*dG*dT*d[5mC]*dA*dG*dA*kA*kG*kA; antisense) [Compound 1200857]”, “1200858 (kA*kA*kG*dT*dG*mU*dA*dT*dG*dT*d[5mC]*dA*dG*kA*kA*kG; antisense) [Compound 1200858]” is higher in “YAP1 (% UT)” value: 4 % UT for the first, 10 % UT for the second.

Going from “1200859 (kA*kA*kA*dG*dT*mG*dT*dA*dT*dG*dT*d[5mC]*dA*kG*kA*kA; antisense) [Compound 1200859]” to “1200860 (kT*kA*kA*dA*dG*mU*dG*dT*dA*dT*dG*dT*d[5mC]*kA*kG*kA; antisense) [Compound 1200860]”, the “YAP1 (% UT)” value falls from 28 % UT to 16 % UT.

Going from “1200861 (kT*kT*kA*dA*dA*mG*dT*dG*dT*dA*dT*dG*dT*k[5mC]*kA*kG; antisense) [Compound 1200861]” to “1200862 (kT*kT*kT*dA*dA*mA*dG*dT*dG*dT*dA*dT*dG*kT*k[5mC]*kA; antisense) [Compound 1200862]”, the “YAP1 (% UT)” value rises from 10 % UT to 17 % UT.

First: 1200863 (k[5mC]*kT*kT*dT*dA*mA*dA*dG*dT*dG*dT*dA*dT*kG*kT*k[5mC]; antisense) [Compound 1200863]
Second: 1200864 (kA*kA*k[5mC]*dT*dT*mU*dA*dA*dA*dG*dT*dG*dT*kA*kT*kG; antisense) [Compound 1200864]
The “YAP1 (% UT)” value of the first is lower: 41 % UT for the first, 84 % UT for the second.

Going from “1200865 (kT*kA*kA*dG*dG*mU*dT*dT*d[5mC]*d[5mC]*d[5mC]*dA*dG*kA*kT*kT; antisense) [Compound 1200865]” to “1200866 (kA*kG*kT*dA*dA*mG*dG*dT*dT*dT*d[5mC]*d[5mC]*d[5mC]*kA*kG*kA; antisense) [Compound 1200866]”, the “YAP1 (% UT)” value falls from 54 % UT to 41 % UT.

Going from “1200867 (kA*kA*kG*dT*dA*mA*dG*dG*dT*dT*dT*d[5mC]*d[5mC]*k[5mC]*kA*kG; antisense) [Compound 1200867]” to “1200868 (kT*kA*kA*dG*dT*mA*dA*dG*dG*dT*dT*dT*d[5mC]*k[5mC]*k[5mC]*kA; antisense) [Compound 1200868]”, the “YAP1 (% UT)” value falls from 38 % UT to 36 % UT.

Going from “1200869 (k[5mC]*kT*kA*dA*dG*mU*dA*dA*dG*dG*dT*dT*dT*k[5mC]*k[5mC]*k[5mC]; antisense) [Compound 1200869]” to “1200870 (kA*k[5mC]*kT*dA*dA*mG*dT*dA*dA*dG*dG*dT*dT*kT*k[5mC]*k[5mC]; antisense) [Compound 1200870]”, the “YAP1 (% UT)” value rises from 25 % UT to 73 % UT.

Going from “1200871 (kG*kA*k[5mC]*dT*dA*mA*dG*dT*dA*dA*dG*dG*dT*kT*kT*k[5mC]; antisense) [Compound 1200871]” to “1200872 (kA*kG*kA*d[5mC]*dT*mA*dA*dG*dT*dA*dA*dG*dG*kT*kT*kT; antisense) [Compound 1200872]”, the “YAP1 (% UT)” value rises from 65 % UT to 98 % UT.

With “1200873 (kT*kT*kA*dG*dA*mC*dT*dA*dA*dG*dT*dA*dA*kG*kG*kT; antisense) [Compound 1200873]” the “YAP1 (% UT)” value was 55 % UT.

Same assay, conditions: Yap1 mRNA, percent of untreated control; modified oligonucleotides targeting SEQ ID NO: 1 and 2; Table 47

Going from “716444 (kA*kA*kA*dT*dT*dG*dT*d[5mC]*dT*d[5mC]*dA*dT*dG*k[5mC]*k[5mC]*kT) [Compound 716444]” to “1074756 (kG*k[5mC]*kA*d[5mC]*dT*dT*dT*dT*dA*d[5mC]*dA*dT*dT*kA*kG*kG) [Compound 1074756]”, the “YAP1 (% UT)” value falls from 46 % UT to 8 % UT.

With “1076453 (kG*kT*kA*dA*dT*dA*dT*dT*dG*d[5mC]*dA*dA*dT*k[5mC]*kT*kG) [Compound 1076453]” the “YAP1 (% UT)” value was 7 % UT.
